Values joined by “and” are separate entries in the source; they are usually repeats but may differ in a detail not shown here. Equal values may be shown once.
Test system: MCF7 complex spheroid growth, % test/control
Assay: Anticancer human tumor MCF7 cell line growth inhibition [Asc];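 note: spheroids exposed to compounds for 7 days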;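 for viability, T/C: 100% = DMSO vehicle control wells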
Conditions: for viability, T/C: stronger effect = lower value
Procedure, shortened: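 Tumor cells were grown as complex spheroids with human endothelial cells (HUVEC) and human mesenchymal stem cells as stroma. Agents were tested alone and in combination, in half-log steps down from the clinical Cmax, or from 10 microM where Cmax was unknown.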

C#Cc1c(F)ccc2cc(O)cc(-c3ncc4c(N5CC6CCC(C5)N6)nc(OCC56CCCN5CC(F)C6)nc4c3F)c12 (centres undefined) was tested, and the viability, T/C (compound 0.0316 µM) was 97% and 87.3% and 92.6%, the viability, T/C (compound 0.1 µM) was 102% and 115% and 97.1% and the viability, T/C (compound 0.316 µM) was 94.8% and 96.2% and 101%. The viability, T/C (compound 1 µM) was 103% and 97.7% and 108%, the viability, T/C (compound 3.16 µM) was 90.2% and 99% and 101% and the viability, T/C (compound 10 µM) was 87.2% and 87.3% and 87.7%. The IC50 (curve of compound) was over 10000 nM.
C#Cc1c(F)ccc2cc(O)cc(-c3ncc4c(N5CC6CCC(C5)N6)nc(OCC56CCCN5CC(F)C6)nc4c3F)c12 (centres undefined) + CCN1C(C(=O)NC23CCC(C(=O)O)(CC2)CC3)C(c2cccc(Cl)c2F)C2(C(=O)Nc3cc(Cl)ccc32)C12CCCCC2 gave an IC50 (curve of first compound, second compound 0.00949 µM) of over 10000 nM, an IC50 (curve of first compound, second compound 0.03 µM) of over 10000 nM and an IC50 (curve of first compound, second compound 0.0949 µM) of 59.8 nM. For the same compound, the IC50 (curve of first compound, second compound 0.3 µM) was under 31.6 nM, the IC50 (curve of first compound, second compound 0.949 µM) was under 31.6 nM and the IC50 (curve of first compound, second compound 3 µM) was under 31.6 nM. The viability, T/C (second compound 0.00949 µM, first compound 0.0316 µM) was 92.6%, the viability, T/C (second compound 0.00949 µM, first compound 0.1 µM) was 114% and the viability, T/C (second compound 0.00949 µM, first compound 0.316 µM) was 111%. The viability, T/C (second compound 0.00949 µM, first compound 1 µM) was 102%, the viability, T/C (second compound 0.00949 µM, first compound 3.16 µM) was 107% and the viability, T/C (second compound 0.00949 µM, first compound 10 µM) was 76.4%. The viability, T/C (second compound 0.03 µM, first compound 0.0316 µM) was 100%, the viability, T/C (second compound 0.03 µM, first compound 0.1 µM) was 81.7% and the viability, T/C (second compound 0.03 µM, first compound 0.316 µM) was 91.8%. For the same compound, the viability, T/C (second compound 0.03 µM, first compound 1 µM) was 81.2%, the viability, T/C (second compound 0.03 µM, first compound 3.16 µM) was 102% and the viability, T/C (second compound 0.03 µM, first compound 10 µM) was 70.7%. For the same compound, the viability, T/C (second compound 0.0949 µM, first compound 0.0316 µM) was 47.6%, the viability, T/C (second compound 0.0949 µM, first compound 0.1 µM) was 60.5% and the viability, T/C (second compound 0.0949 µM, first compound 0.316 µM) was 36.4%. It also gave a viability, T/C (second compound 0.0949 µM, first compound 1 µM) of 42.2%, a viability, T/C (second compound 0.0949 µM, first compound 3.16 µM) of 47.8% and a viability, T/C (second compound 0.0949 µM, first compound 10 µM) of 32.9%. For the same compound, the viability, T/C (second compound 0.3 µM, first compound 0.0316 µM) was 27.1%, the viability, T/C (second compound 0.3 µM, first compound 0.1 µM) was 24.6% and the viability, T/C (second compound 0.3 µM, first compound 0.316 µM) was 28.6%. For the same compound, the viability, T/C (second compound 0.3 µM, first compound 1 µM) was 27.4%, the viability, T/C (second compound 0.3 µM, first compound 3.16 µM) was 23.5% and the viability, T/C (second compound 0.3 µM, first compound 10 µM) was 19.9%. The viability, T/C (second compound 0.949 µM, first compound 0.0316 µM) was 17.1%, the viability, T/C (second compound 0.949 µM, first compound 0.1 µM) was 19.2% and the viability, T/C (second compound 0.949 µM, first compound 0.316 µM) was 14.1%. It also gave a viability, T/C (second compound 0.949 µM, first compound 1 µM) of 17.8%, a viability, T/C (second compound 0.949 µM, first compound 3.16 µM) of 16.3% and a viability, T/C (second compound 0.949 µM, first compound 10 µM) of 10.8%. It also gave a viability, T/C (second compound 3 µM, first compound 0.0316 µM) of 12.8%, a viability, T/C (second compound 3 µM, first compound 0.1 µM) of 11.4% and a viability, T/C (second compound 3 µM, first compound 0.316 µM) of 11.5%. The viability, T/C (second compound 3 µM, first compound 1 µM) was 10.2%, the viability, T/C (second compound 3 µM, first compound 3.16 µM) was 14.1% and the viability, T/C (second compound 3 µM, first compound 10 µM) was 7.87%.

— PubChem BioAssay AID1963445 (Molecular Pharmacology Branch, DTP, NCI, 2024)
